Data on twelve molecules can be found in US20240246918A1, “COMPOUNDS AND COMPOSITIONS AS EIF4E INHIBITORS AND THE USES THEREOF” (Ribometrix, Inc., priority 2022, published 2024).

Where two headings read alike, the source gives them in different places.

In one assay the target is T1, human eIF4E protein (Homo sapiens, UniProt P06730).
T1 construct: purchased Novus NBP-45314
In words: Biochemical competitive binding assay (TR-FRET competition, EDA-m7GDP-ATTO-647N probe). The conditions noted are these: read-out: hEIF4E TR-FRET IC50. Summed up: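 IC50 values come from 4-parameter fits of the normalized 665/620 nm TR-FRET ratio. Compound was first incubated 15 min with 4 nM recombinant His-eIF4E bound to 2.5 nM Eu-anti-His antibody, then 15 min with 5 nM m7GDP-ATTO-647N tracer, in pH 7.5 HEPES buffer with 100 mM KCl, Tween-20 and BSA.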
A general note: In TR-FRET formats the signal depends on donor and acceptor labels being close together.

Assay [1] relates to cap-dependent translation in Flp-In-293 reporter cells. In words: Cellular cap-dependent translation inhibition assay (dual luciferase assay, DLA; Fluc/Rluc ratio, 24 hours). It counts as cell-based. The conditions noted are these: dual luciferase assay, Flp-In-293 reporter cells, 24 hours, Fluc/Rluc ratio, read-out: DLA 205 IC50.
Assay [2] has as its system COLO 205 colorectal tumor cells. Kind of assay: Tumor cell viability inhibition assay (CellTiter-Glo 2.0, 72 hours). It counts as cell-based. The conditions noted are these: COLO 205 cell viability. Summed up:
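IC50 derived by 4-parameter fitting after normalizing luminescence to DMSO and max-inhibition wells. Compounds tested as 11 concentrations in 4-fold steps on COLO 205 cells seeded at 1500 per well in RPMI-1640/10% FBS; ATP content measured with CellTiter-Glo 2.0 after 72 h.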
On the technique in general: In ATP-based viability assays light output follows the ATP content of the culture.

T1 sequence (P06730 whole entry): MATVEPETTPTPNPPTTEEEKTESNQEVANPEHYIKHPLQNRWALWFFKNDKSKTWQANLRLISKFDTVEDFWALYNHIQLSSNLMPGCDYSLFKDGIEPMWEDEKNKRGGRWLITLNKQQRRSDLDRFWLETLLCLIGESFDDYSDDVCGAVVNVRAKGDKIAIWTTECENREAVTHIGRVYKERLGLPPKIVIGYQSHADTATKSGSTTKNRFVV

On to `Cc1cc(-c2cc(Cl)ccc2OCCn2c(C)nc3c(c2=O)CC(N2CCCCC2)CC3)c2ccc(C(=O)NS(C)(=O)=O)n2n1` (stereo not drawn) [Compound 62, 4-[5-chloranyl-2-[2-[2-methyl-4-oxidanylidene-6-(1-piperidyl)-5,6,7,8-tetrahydroquinazolin-3-yl]ethoxy]phenyl]-2-methyl-N-methylsulfonyl-pyrrolo[1,2-b]pyridazine-7-carboxamide], for which the IC50 – broadly, the concentration that inhibits the measured activity by half – at human eIF4E protein is less than 100 nM; in assay [1] (Homo sapiens, Flp-In-293, 24 h), less than 1000 nM; in assay [2] (Homo sapiens, COLO 205, 72 h), less than 5000 nM.
In the same order, the values of `Cc1cc(-c2cc(Cl)ccc2OCCn2c(C)nc3c(c2=O)CC(N2CC4COCC4C2)CC3)c2sccc2n1` (stereo not drawn) [Compound 78] are 100 to 500 nM, 1000 to 5000 nM and more than 20000 nM.
Regarding `Cc1cc(-c2cc(Cl)ccc2OCCn2c(C)nc3c(c2=O)C[C@@H](N2CC[C@H](F)C2)CC3)c2scc(C(=O)O)c2n1` (single isomer, unassigned) [Compound 310], the IC50 on human eIF4E protein is less than 100 nM; in assay [1] (Homo sapiens, Flp-In-293, 24 h), less than 1000 nM; in assay [2] (Homo sapiens, COLO 205, 72 h) it was less than 5000 nM.
Turning to `Cc1cc(-c2cc(Cl)ccc2OCCn2c(C)nc3c(c2=O)CC(N(C)C)CC3)c2ccc(C(=O)O)n2n1` (stereo not drawn) [Compound 36, 4-[5-chloranyl-2-[2-[6-[di(methyl)amino]-2-methyl-4-oxidanylidene-5,6,7,8-tetrahydroquinazolin-3-yl]ethoxy]phenyl]-2-methyl-pyrrolo[1,2-b]pyridazine-7-carboxylic acid], the IC50 was less than 100 nM at human eIF4E protein; more than 5000 nM in assay [1] (Homo sapiens, Flp-In-293, 24 h); more than 20000 nM in assay [2] (Homo sapiens, COLO 205, 72 h).
Regarding `Cc1cc(-c2cc(Cl)ccc2OCCn2c(C)nc3c(c2=O)CC(N(C)C2CCCC2)CC3)c2scc(C(=O)O)c2n1` (stereo not drawn) [Compound 80], the IC50 on human eIF4E protein was less than 100 nM; in assay [1] (Homo sapiens, Flp-In-293, 24 h), less than 1000 nM; in assay [2] (Homo sapiens, COLO 205, 72 h), less than 5000 nM.
In the same order, the values of `Cc1cc(-c2cc(Cl)ccc2OCCn2c(C)nc3c(c2=O)C[C@H](N2CC[C@H](F)C2)CC3)c2scc(C(=O)NS(C)(=O)=O)c2n1` (single isomer, unassigned) [Compound 346] are less than 100 nM, less than 1000 nM and less than 5000 nM.
For the molecule `Cc1nc2c(c(=O)n1CC#Cc1ccc(Cl)cc1-c1ccnc3c(C(=O)O)csc13)CC(N(C)C)CC2` (stereo not drawn) [Compound 350], the IC50 is 500 to 5000 nM at human eIF4E protein; more than 5000 nM in assay [1] (Homo sapiens, Flp-In-293, 24 h); more than 20000 nM in assay [2] (Homo sapiens, COLO 205, 72 h).
For `Cc1cc(-c2cc(Cl)ccc2OCCn2c(C)nc3c(c2=O)CC(N2CC(C(F)(F)F)C2)CC3)c2scc(C(=O)O)c2n1` (stereo not drawn) [Compound 90], the concentration for half-maximal inhibition (IC50) on human eIF4E protein was less than 100 nM; in assay [1] (Homo sapiens, Flp-In-293, 24 h), less than 1000 nM; in assay [2] (Homo sapiens, COLO 205, 72 h), less than 5000 nM.
In the same order, the values of `Cc1cc(-c2cc(Cl)ccc2OCCn2c(C)nc3c(c2=O)CC(N(C)CC(F)(F)F)CC3)c2scc(C(=O)NS(C)(=O)=O)c2n1` (stereo not drawn) [Compound 61] are less than 100 nM, less than 1000 nM and less than 5000 nM.
The like results for `Cc1cc(-c2cc(Cl)ccc2OCCn2c(C)nc3c(c2=O)CC2(CC3)CN(C3CC3)C2)c2scc(C(=O)O)c2n1` [Compound 270, 7-(5-chloro-2-(2-(1-cyclopropyl-2′-methyl-4′-oxo-7′,8′-dihydro-4′H-spiro[azetidine-3,6′-quinazolin]-3′(5′H)-yl)ethoxy)phenyl)-5-methylthieno[3,2-b]pyridine-3-carboxylic acid] were, in that order, less than 100 nM, less than 1000 nM and 5000 to 20000 nM.
As for `Cc1nc2c(c(=O)n1CC#Cc1ccc(Cl)cc1-c1ccnc3c(C(=O)NS(C)(=O)=O)csc13)CC(N(C)C)CC2` (single isomer, unassigned) [Compound 273], the IC50 is 500 to 5000 nM at human eIF4E protein, more than 5000 nM in assay [1] and more than 20000 nM in assay [2].
On to `Cc1cc(-c2cc(Cl)ccc2OCCn2c(C)nc3c(c2=O)CC(N2CCC[C@H](F)C2)CC3)c2scc(C(=O)NS(C)(=O)=O)c2n1` (single isomer, unassigned) [Compound 264], for which the IC50 on human eIF4E protein was less than 100 nM; in assay [1] (Homo sapiens, Flp-In-293, 24 h), less than 1000 nM; in assay [2] (Homo sapiens, COLO 205, 72 h), less than 5000 nM.
